PMC9412534, “Diindolylmethane Derivatives: New Selective Blockers for T-Type Calcium Channels” (Membranes, 2022)

Tested on: MCF-7, T-47D, A549 and HT-29 cells
Assay: Cell viability MTT assay, four cancer cell lines (overall)
Format: cell-based, human
Conditions: 50 µM, 72 h
Method: Human breast cancer cell line MCF-7 and T-47D, lung cancer cell line A549, and colon cancer cell line HT-29 were cultured under 5% carbon dioxide at 37 °C in DMEM Glutamax (Gibco, Life Technologies) supplemented with 10% (v/v) FBS. They were split in a ratio of 1:3–1:6 (ideally 2–4 × 10,000 cells/cm^2) when they reached 70–80% confluence using 0.25% Trypsin-EDTA. For cell viability MTT assay, cells were seeded into 96-well clear bottom culture plates (Corning, Lowell, MA, USA) at a density of 5 × 10^3 cells/well and settled at 37 °C for 24 h.
Seeded cells were treated with various concentrations of compounds for desired time period (24, 48 and 72 h). After the treatments, the media were removed from each well, and replaced with 25 μL of serum-free media and 25 μL of MTT Reagent (cat. no., ab211091; Abcam, Cambridge, MA, USA). The plate was then incubated at 37 °C for 3 h, and 75 μL of MTT Solvent (cat. no., ab211091; Abcam) was added into each well after incubation. The absorbance was evaluated at 590 nm. Cell-wells treated with 0.1% DMSO were used as positive control and no cell-wells were used as background control.

SMILES: O=C(c1cn(Cc2ccccc2)c2ccccc12)c1cn(Cc2ccccc2)c2ccccc12 [IX, bis(1-benzyl-1H-indol-3-yl)methanone]
- effect on cancer cell viability: did not affect cancer cell viability
